Key:
Assay in all cases: preemergence treatment in the greenhouse, % damage
[1] = test system: Arach. hypog.; type: in vivo, Arachis hypogaea
Excerpt: The vessels employed were plastic flowerpots having a volume of 300 cm^3; the substrate was a sandy loam containing about 1.5% humus. The seeds of the test plants (see Table 1) were sown shallow, and separated according to species. In the case of Cyperus esculentus, pregerminated tubers were planted. In the preemergence treatment, the active ingredients were then immediately applied to the surface of the soil. They were suspended or emulsified in water as the vehicle, and sprayed through atomizing nozzles. After the agents had been applied, the vessels were lightly sprinkler-irrigated to set germination and growth going, and to activate the chemical agents. The vessels were then covered with transparent plastic hoods until the plants had taken root. This cover ensured uniform germination of the test plants (to the extent that this was not impaired by the chemicals), and prevented readily volatile substances from evaporating.
For postemergence treatment, the plants were first grown to a height of from 3 to 10 cm, depending on their habit, before treated. Hoods were not placed on the pots. The experiments were set up in the greenhouse, hotter areas (25° to 40° C.) being preferred for heat-loving species, and 15° to 30° C. for plants from moderate climates. The experiments were carried out for from 4 to 6 weeks. During this period the plants were tended and their reaction to the various treatments was assessed. The following tables contain the substances investigated, the application rates in kg/ha of active ingredient, and the test plant species. Assessments were made on a 0 to 100 scale, 0 denoting no damage or normal emergence, and 100 denoting no emergence or complete destruction of at least the visible plant parts.

[2] = test system: Solanum nigrum; type: in vivo; settings: 1.0 kg/ha
Summary of the method: (§1)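 Greenhouse herbicide test at rates in kg/ha a.i. Pre-em soil spray right after sowing, then irrigation and hooding; post-em on 3–10 cm plants. Rated 0–100 over 4–6 weeks.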

[3] = test system: Echin. c.g.; type: in vivo
Summary of the method: as §1

[4] = test system: Cyp. diff.; type: in vivo; settings: 1.0 kg/ha
Summary of the method: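 Seeds sown in sandy loam (~1.5% humus); pre-emergence: agents sprayed in water onto soil surface immediately after sowing, then irrigated and hooded until rooting. Post-emergence: plants treated at 3–10 cm height, unhooded. Greenhouse at 25–40 °C or 15–30 °C by species; rates in kg/ha a.i.; damage scored 0–100 after 4–6 weeks.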

[5] = test system: Alopec. myosur.; type: in vivo
Summary of the method: as §1

[6] = test system: Brassica napus; type: in vivo; settings: 1.0 kg/ha
Summary of the method: as §1

[7] = test system: Setaria spp.; type: in vivo
Summary of the method: as §1

[8] = test system: Bromus spp.; type: in vivo
Summary of the method: as §1

[9] = test system: Matric. spp.; type: in vivo
Summary of the method: as §1

[10] = test system: Zea mays; type: in vivo; settings: 2.0 kg/ha
Summary of the method: as §1

Row | Structure (SMILES) | % damage ([1]; 1.0 kg/ha) | % damage [2] | % damage ([3]; 1.0 kg/ha) | % damage [4] | % damage ([5]; 1.0 kg/ha) | % damage [6] | % damage ([7]; 1.0 kg/ha) | % damage ([8]; 1.0 kg/ha) | % damage ([9]; 1.0 kg/ha) | % damage ([1]; 2.0 kg/ha) | % damage ([3]; 2.0 kg/ha) | % damage ([5]; 2.0 kg/ha) | % damage [10] | % damage ([7]; 2.0 kg/ha) | % damage ([8]; 2.0 kg/ha) | % damage ([9]; 2.0 kg/ha)
1 | Cc1ncn(CN(C(=O)CCl)c2c(C)cccc2C)n1 | 0% | 100% | 100% | 100% | 97% | 5% | 100% | 98% | 92% | – | – | – | – | – | – | –
2 | Cc1cccc(C)c1N(Cn1ncnn1)C(=O)CCl | – | – | – | – | – | – | – | – | – | 15% | 100% | 98% | 15% | 95% | 98% | 100%
